Values joined by “and” are separate entries in the source; they are usually repeats but may differ in a detail not shown here. Equal entries are not always repeated. Toxic doses and inconclusive results are not listed.

The subject of the assay is P388 leukemia ip, CD2F1 mice, survival T/C. As to the kind of experiment: NCI In Vivo Anticancer Drug Screen. Data for tumor model P388 Leukemia (intraperitoneal) in CD2F1 (CDF1) mice. The note with it: endpoint: median survival time, higher = longer survival. In short, it runs like this: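 Mice carrying the transplanted tumor received test compound or vehicle. Survival was recorded in each group, and the value is the treated-group measurement divided by that of the vehicle-treated control group.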

Setting [1] is: dose: 50.0 mg/kg/injection, schedule: Q01DX009 (ip), vehicle: Klucel (hydroxypropylcellulose) (HPC).
[2] abbreviates: dose: 100.0 mg/kg/injection, schedule: Q01DX009 (ip), vehicle: Klucel (hydroxypropylcellulose) (HPC).
Setting [3] is: dose: 50.0 mg/kg/injection, schedule: Q01DX009 (ip), vehicle: suspension in saline.
Setting [4] is: dose: 100.0 mg/kg/injection, schedule: Q01DX009 (ip), vehicle: suspension in saline.
The mark [5] stands for this setting: dose: 200.0 mg/kg/injection, schedule: Q01DX009 (ip), vehicle: suspension in saline.
Setting [6] is: dose: 25.0 mg/kg/injection, schedule: Q01DX005 (ip), vehicle: Klucel (hydroxypropylcellulose) (HPC).
Where [7] appears, read: dose: 50.0 mg/kg/injection, schedule: Q01DX005 (ip), vehicle: Klucel (hydroxypropylcellulose) (HPC).
[8] abbreviates: dose: 100.0 mg/kg/injection, schedule: Q01DX005 (ip), vehicle: Klucel (hydroxypropylcellulose) (HPC).
[9] abbreviates: dose: 200.0 mg/kg/injection, schedule: Q01DX005 (ip), vehicle: Klucel (hydroxypropylcellulose) (HPC).
Where [10] appears, read: dose: 15.0 mg/kg/injection, schedule: Q01DX005 (ip), vehicle: saline with Tween-80.
Where [11] appears, read: dose: 30.0 mg/kg/injection, schedule: Q01DX005 (ip), vehicle: saline with Tween-80.
[12] abbreviates: dose: 60.0 mg/kg/injection, schedule: Q01DX005 (ip), vehicle: saline with Tween-80.

On to `CCC[CH2][Sn]([Cl])([Cl])[CH2]CCC`, for which the T/C by setting is: (dose: 0.19 mg/kg/injection, schedule: Q01DX009 (ip), vehicle: saline with Tween-80) 100 % of control; (dose: 0.38 mg/kg/injection, schedule: Q01DX009 (ip), vehicle: saline with Tween-80) 113 % of control; (dose: 0.75 mg/kg/injection, schedule: Q01DX009 (ip), vehicle: saline with Tween-80) 114 % of control and 120 % of control; (dose: 1.5 mg/kg/injection, schedule: Q01DX009 (ip), vehicle: saline with Tween-80) 112 % of control and 114 % of control; (dose: 3.0 mg/kg/injection, schedule: Q01DX009 (ip), vehicle: saline with Tween-80) 168 % of control; (dose: 6.0 mg/kg/injection, schedule: Q01DX009 (ip), vehicle: saline with Tween-80) 91 % of control. In addition, the T/C (dose: 100.0 mg/kg/injection, schedule: Q04DX003 (ip), vehicle: saline) is 109 % of control.
As to `COc1cccc(C)c1C(O)CC1CCCN1` (configuration not stated), the T/C was 106 % of control under setting [1] and 102 % of control under setting [2].
As to `Nc1nc2[nH]c(=O)cnc2c(=O)[nH]1`, the T/C was 107 % of control (dose: 12.5 mg/kg/injection, schedule: Q01DX009 (ip), vehicle: saline with Tween-80); 107 % of control (dose: 25.0 mg/kg/injection, schedule: Q01DX009 (ip), vehicle: saline with Tween-80); 108 % of control (dose: 50.0 mg/kg/injection, schedule: Q01DX009 (ip), vehicle: saline with Tween-80); 106 % of control under setting [3]; 91 % of control under setting [4]; 107 % of control under setting [5]. Moreover, the T/C (dose: 300.0 mg/kg/injection, schedule: Q01DX009 (ip), vehicle: saline) was 91 % of control.
Consider `Cc1cc2c3ccc(C)[n+](C)c3ccc2n1C`, for which the T/C was 100 % of control (dose: 1.25 mg/kg/injection, schedule: Q01DX010 (ip), vehicle: saline) and 105 % of control (dose: 2.5 mg/kg/injection, schedule: Q01DX010 (ip), vehicle: saline).
Turning to `c1ccc(-c2nc[nH]c2-c2ccccc2)cc1`, the T/C runs as follows: under setting [1], 96 % of control; under setting [2], 97 % of control; under setting [4], 101 % of control; (dose: 200.0 mg/kg/injection, schedule: Q01DX009 (ip), vehicle: Klucel (hydroxypropylcellulose) (HPC)) 98 % of control; under setting [5], 96 % of control; (dose: 400.0 mg/kg/injection, schedule: Q01DX009 (ip), vehicle: Klucel (hydroxypropylcellulose) (HPC)) 97 % of control.
For `CC(CO)c1cc2c(cc1O)[C@@]1(C)CCCC(C)(C)[C@@H]1CC2` (some centres not stated), the T/C reads like this: under setting [6], 99 % of control; under setting [7], 102 % of control; under setting [8], 89 % of control; under setting [9], 89 % of control and 93 % of control; (dose: 400.0 mg/kg/injection, schedule: Q01DX005 (ip), vehicle: Klucel (hydroxypropylcellulose) (HPC)) 88 % of control.
On to `CCn1c2ccccc2c2cc(N/C=C/C3=[N+](C)c4ccccc4C3(C)C)ccc21`, for which the T/C is, setting by setting: (dose: 1.56 mg/kg/injection, schedule: Q01DX009 (ip), vehicle: Klucel (hydroxypropylcellulose) (HPC)) 107 % of control and 111 % of control; (dose: 3.12 mg/kg/injection, schedule: Q01DX009 (ip), vehicle: Klucel (hydroxypropylcellulose) (HPC)) 100 % of control and 114 % of control; (dose: 6.25 mg/kg/injection, schedule: Q01DX009 (ip), vehicle: Klucel (hydroxypropylcellulose) (HPC)) 116 % of control (2×) and 123 % of control; (dose: 12.5 mg/kg/injection, schedule: Q01DX009 (ip), vehicle: Klucel (hydroxypropylcellulose) (HPC)) 109 % of control; (dose: 25.0 mg/kg/injection, schedule: Q01DX009 (ip), vehicle: Klucel (hydroxypropylcellulose) (HPC)) 96 % of control.
For `Oc1cc2c(cc1-c1cc3c(cc1O)OCO3)OCO2`, the T/C is 100 % of control under setting [6], 100 % of control under setting [7], 105 % of control under setting [8] and 100 % of control under setting [9].
Regarding `CCCCCCCCCC1c2[nH]c3ccccc3c2C(=O)NN1C(C)=O` (configuration not stated), the T/C (dose: 100.0 mg/kg/injection, schedule: Q01DX001 (ip), vehicle: Klucel (hydroxypropylcellulose) (HPC)) was 98 % of control; the T/C (dose: 200.0 mg/kg/injection, schedule: Q01DX001 (ip), vehicle: Klucel (hydroxypropylcellulose) (HPC)) was 98 % of control; the T/C (dose: 400.0 mg/kg/injection, schedule: Q01DX001 (ip), vehicle: Klucel (hydroxypropylcellulose) (HPC)) was 104 % of control.
With `CCOc1c2c(nn(C)c1=O)Oc1ccccc1N2CCCN1CCOCC1`, the T/C is, setting by setting: under setting [10], 96 % of control; under setting [11], 90 % of control; under setting [12], 104 % of control and 91 % of control.
Regarding `N=C(N)SC12CC3CC(CC(C3)C1)C2`, the T/C reads like this: (dose: 7.5 mg/kg/injection, schedule: Q01DX005 (ip), vehicle: saline with Tween-80) 93 % of control; under setting [10], 98 % of control; under setting [11], 99 % of control; under setting [12], 98 % of control.
For `O=C1c2c(O)cccc2C(C2OC(CO)C(O)C(O)C2O)c2cc(CO)cc(O)c21` (configuration not stated), the T/C by setting is: under setting [6], 101 % of control; (dose: 50.0 mg/kg/injection, schedule: Q01DX001 (ip), vehicle: water) 104 % of control; under setting [7], 104 % of control and 107 % of control; (dose: 100.0 mg/kg/injection, schedule: Q01DX001 (ip), vehicle: water) 104 % of control; under setting [8], 117 % of control and 110 % of control; (dose: 200.0 mg/kg/injection, schedule: Q01DX001 (ip), vehicle: water) 104 % of control.
Turning to `Cc1cc(NC(=S)SC(C)C)ccc1Br`, the T/C reads like this: under setting [3], 100 % of control; under setting [4], 101 % of control; under setting [5], 100 % of control.
As for `Cc1[nH]nc2c(Cc3ccc([N+](=O)[O-])cc3)n[nH]c(=O)c12`, the T/C is 92 % of control (dose: 100.0 mg/kg/injection, schedule: Q04DX002 (ip), vehicle: Klucel (hydroxypropylcellulose) (HPC)); 87 % of control (dose: 200.0 mg/kg/injection, schedule: Q04DX002 (ip), vehicle: Klucel (hydroxypropylcellulose) (HPC)); 92 % of control (dose: 400.0 mg/kg/injection, schedule: Q04DX002 (ip), vehicle: Klucel (hydroxypropylcellulose) (HPC)).
For `CCCCNC(C)[C@]1(O)Cc2c(O)c3c(c(O)c2[C@@H](OC2CC(N)C(O)C(C)O2)C1)C(=O)c1c(OC)cccc1C3=O` (some centres not stated), the T/C (dose: 1.25 mg/kg/injection, schedule: Q01DX009 (ip), vehicle: water) was 154 % of control; the T/C (dose: 2.5 mg/kg/injection, schedule: Q01DX009 (ip), vehicle: water) is 152 % of control and 170 % of control; the T/C (dose: 5.0 mg/kg/injection, schedule: Q01DX009 (ip), vehicle: water) is 176 % of control and 190 % of control; the T/C (dose: 10.0 mg/kg/injection, schedule: Q01DX009 (ip), vehicle: water) was 99 % of control.
Turning to `COC1/C=C\C=C(/C)C(=O)NC2=CC(=O)C(NC3CC3)=C(CC(C)CC(OC)C(O)C(C)/C=C(/C)C1OC(N)=O)C2=O` (configuration not stated), the T/C is 107 % of control (dose: 12.5 mg/kg/injection, schedule: Q04DX002 (ip), vehicle: saline with Tween-80); 108 % of control (dose: 18.75 mg/kg/injection, schedule: Q04DX002 (ip), vehicle: saline with Tween-80); 107 % of control and 113 % of control (dose: 25.0 mg/kg/injection, schedule: Q04DX002 (ip), vehicle: saline with Tween-80); 108 % of control (dose: 37.5 mg/kg/injection, schedule: Q04DX002 (ip), vehicle: saline with Tween-80); 111 % of control and 113 % of control (dose: 50.0 mg/kg/injection, schedule: Q04DX002 (ip), vehicle: saline with Tween-80); 117 % of control (dose: 75.0 mg/kg/injection, schedule: Q04DX002 (ip), vehicle: saline with Tween-80). For the same molecule, the T/C (dose: 100.0 mg/kg/injection, schedule: Q04DX002 (ip), vehicle: saline with Tween-80) was 120 % of control and 88 % of control.
As to `CS(=O)(=O)O`, the T/C runs as follows: (dose: 50.0 mg/kg/injection, schedule: Q01DX009 (ip), vehicle: saline) 100 % of control; (dose: 100.0 mg/kg/injection, schedule: Q01DX009 (ip), vehicle: saline) 110 % of control; (dose: 200.0 mg/kg/injection, schedule: Q01DX009 (ip), vehicle: saline) 108 % of control.
On to `CC(C)=C1NC(=O)NC1=O`, for which the T/C runs as follows: under setting [7], 101 % of control; under setting [8], 101 % of control; under setting [9], 102 % of control.
